Data set [1] in a line: Solubility of moxifloxacin HCl in the presence of sodium chloride. The data set is classed as physicochemical. The note with it: for Solubility moxifloxacin HCl: 5° C.; for solubility thermodynamic: sodium chloride solution, 5 °C, thermodynamic from solid. On the procedure:
For a dosage range of from 100 mg to 1000 mg at active compound concentrations of from 0.04% to 0.4% (w/v) of moxifloxacin hydrochloride, it is thus possible to adjust the osmotic pressure to physiological conditions by adding from 0.4% to 0.9% of sodium chloride. […] This ensures that, even on short-term cold storage, there is no precipitation of the active compound as a result of exceeding the saturation solubilities. [table]

The next data set is described as follows: physchem. The note with it: water (aqueous solution without NaCl).

Structures are written as SMILES. Where a name gives a salt, the structure may show the parent alone.

On to `COc1c(N2C[C@@H]3CCCN[C@@H]3C2)c(F)cc2c(=O)c(C(=O)O)cn(C3CC3)c12` [moxifloxacin HCl, 1-cyclopropyl-7-([S,S]-2,8-diazabicyclo[4.3.0]non-8-yl)-6-fluoro-1,4-dihydro-8-methoxy-4-oxo-3-quinolonecarboxylic acid], for which the “Solubility moxifloxacin HCl” value in data set [1] (NaCl 0.7 % (w/v)) and in data set [1] (NaCl 0.8 % (w/v)) was 0.2 % (w/v) each time. Further, the solubility (thermodynamic) is 11000 µg/mL in data set [1] (saline or isotonic, NaCl 0.1 % (w/v)); 7000 µg/mL in data set [1] (saline or isotonic, NaCl 0.2 % (w/v)); 5000 µg/mL in data set [1] (saline or isotonic, NaCl 0.3 % (w/v)); 4000 µg/mL in data set [1] (saline or isotonic, NaCl 0.4 % (w/v)); 3000 µg/mL in data set [1] (saline or isotonic, NaCl 0.5 % (w/v)); 2000 µg/mL in data set [1] (saline or isotonic, NaCl 0.6 % (w/v)). In addition, the thermodynamic solubility in data set [1] (saline or isotonic, NaCl 0.9 % (w/v)) is 1000 µg/mL; in data set [1] (water, NaCl 0 % (w/v)), 18000 µg/mL; in the data set “physchem”, roughly 24 mg/mL.

What is called thermodynamic solubility is solubility found after equilibrating the solid with the medium.

These data come from patent US6548079B1, “Moxifloxacin formulation containing common salt” (Bayer Aktiengesellschaft, priority 1999, dated 2003).
